In paper PMC10127574 (ACS chemical biology, 2015):
Like-named read-outs stand apart in the source and are kept apart here.

What was measured:
[1] = biological target: T1, cysteine-free form of IDE (CF-IDE) (Homo sapiens, UniProt P14735, C819S, form not given); test: IDE activity assay with FRET1 using cysteine-free IDE; assay type: biochemical; settings: read-out: ki CF-IDE
T1 sequence (P14735 42-1019 C819S): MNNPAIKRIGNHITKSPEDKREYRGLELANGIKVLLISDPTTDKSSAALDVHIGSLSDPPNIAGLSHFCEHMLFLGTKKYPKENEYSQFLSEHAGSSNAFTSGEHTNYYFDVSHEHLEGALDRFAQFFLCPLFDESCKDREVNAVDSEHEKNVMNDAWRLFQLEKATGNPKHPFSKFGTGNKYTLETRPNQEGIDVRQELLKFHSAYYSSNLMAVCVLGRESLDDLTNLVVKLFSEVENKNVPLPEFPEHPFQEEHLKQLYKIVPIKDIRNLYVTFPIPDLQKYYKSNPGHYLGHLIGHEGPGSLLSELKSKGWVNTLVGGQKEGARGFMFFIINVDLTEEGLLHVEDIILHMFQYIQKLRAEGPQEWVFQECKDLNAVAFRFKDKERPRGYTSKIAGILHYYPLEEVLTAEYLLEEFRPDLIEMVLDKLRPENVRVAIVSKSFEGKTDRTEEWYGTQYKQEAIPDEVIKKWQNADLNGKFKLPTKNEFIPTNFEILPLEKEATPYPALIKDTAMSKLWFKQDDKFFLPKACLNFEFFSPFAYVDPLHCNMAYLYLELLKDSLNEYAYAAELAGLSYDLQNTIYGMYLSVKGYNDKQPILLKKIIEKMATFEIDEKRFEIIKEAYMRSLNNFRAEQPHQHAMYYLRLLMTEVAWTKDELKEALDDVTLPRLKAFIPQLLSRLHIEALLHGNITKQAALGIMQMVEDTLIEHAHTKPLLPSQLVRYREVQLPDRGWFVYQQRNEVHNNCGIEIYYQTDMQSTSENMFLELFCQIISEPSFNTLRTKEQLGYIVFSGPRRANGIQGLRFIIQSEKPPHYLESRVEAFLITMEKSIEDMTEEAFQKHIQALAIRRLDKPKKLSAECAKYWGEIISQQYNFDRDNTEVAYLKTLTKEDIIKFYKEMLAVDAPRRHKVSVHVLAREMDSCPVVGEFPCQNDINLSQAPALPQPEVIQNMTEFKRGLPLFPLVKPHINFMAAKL

[2] = liver microsome stability, mouse; assay type: in vitro ADME; settings: mouse liver microsomes
[3] = chemical stability in PBS; assay type: physicochemical
[4] = tested on: cysteines (proteome-wide); test: proteome-wide activity-based protein-profiling assay
[5] = biological target: T2, recombinant wild-type IDE (WT-IDE) (Homo sapiens, UniProt P14735); test: cell-free IDE activity assay with fluorogenic peptide substrate FRET1; assay type: biochemical
T2 sequence (P14735 1-1019): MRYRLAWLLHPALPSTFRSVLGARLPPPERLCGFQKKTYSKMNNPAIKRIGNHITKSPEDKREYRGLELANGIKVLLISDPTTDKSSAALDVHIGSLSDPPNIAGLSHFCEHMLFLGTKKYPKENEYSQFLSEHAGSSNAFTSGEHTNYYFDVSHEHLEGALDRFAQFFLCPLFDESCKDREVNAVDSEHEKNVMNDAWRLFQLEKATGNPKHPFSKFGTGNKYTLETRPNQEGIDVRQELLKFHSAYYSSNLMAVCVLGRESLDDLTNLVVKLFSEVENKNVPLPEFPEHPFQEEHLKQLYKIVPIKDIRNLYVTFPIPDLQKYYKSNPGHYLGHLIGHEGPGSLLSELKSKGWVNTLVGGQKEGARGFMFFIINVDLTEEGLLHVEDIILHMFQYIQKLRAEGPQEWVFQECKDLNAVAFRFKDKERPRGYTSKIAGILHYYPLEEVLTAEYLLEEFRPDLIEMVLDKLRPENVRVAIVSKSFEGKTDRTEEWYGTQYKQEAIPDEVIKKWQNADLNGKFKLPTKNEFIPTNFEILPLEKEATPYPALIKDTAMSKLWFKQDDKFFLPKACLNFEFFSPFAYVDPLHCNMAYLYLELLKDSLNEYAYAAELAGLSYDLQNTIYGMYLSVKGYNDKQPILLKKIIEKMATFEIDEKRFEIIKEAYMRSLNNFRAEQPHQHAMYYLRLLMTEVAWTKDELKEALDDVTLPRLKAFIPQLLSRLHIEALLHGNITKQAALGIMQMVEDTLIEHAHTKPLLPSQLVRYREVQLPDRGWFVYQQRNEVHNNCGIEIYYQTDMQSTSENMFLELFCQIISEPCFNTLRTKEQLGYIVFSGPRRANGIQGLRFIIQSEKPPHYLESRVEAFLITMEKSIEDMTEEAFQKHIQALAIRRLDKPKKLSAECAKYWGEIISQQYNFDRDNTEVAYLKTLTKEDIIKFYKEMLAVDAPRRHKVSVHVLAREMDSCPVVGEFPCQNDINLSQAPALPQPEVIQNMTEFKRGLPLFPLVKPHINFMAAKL

[6] = tested on: HEK-293 cells; test: luminescence-based HEK cell viability; set-up: species or system human; settings: up to 100 μM
[7] = liver microsome stability, human; assay type: in vitro ADME; settings: human liver microsomes
[8] = liver microsome stability, rat; assay type: in vitro ADME; settings: rat liver microsomes

O=c1c2cc(F)ccc2sn1-c1cc(S(=O)(=O)N2CCOCC2)ccc1N1CCOCC1 [Compound 8, 5-fluoro-2-(2-morpholin-4-yl-5-morpholin-4-ylsulfonylphenyl)-1,2-benzothiazol-3-one]
Ki [1]: 8370 nM | Liver microsome stability, Mouse [2]: 24 min | Chemical stability in PBS [3]: >> 48 hr. | reactivity with cysteines in proteome-wide activity-based protein profiling [4]: minimal reactivity | BEI (binding efficiency index, pIC50^app/MW, kDa) [5]: 15 | IC50 ([5]; read-out: IC50^app cell-free, Table 2): 63 nM | IC50 ([5]; read-out: IC50^app in vitro, FRET1, Table 3, n=5): 63 ± 8.1 nM | toxicity in cells [6]: no toxicity | Liver microsome stability, Human [7]: > 120 min | Liver microsome stability, Rat [8]: 50 min
